{
  "source": "PubChem BioAssay AID1996",
  "data": [
    {"details": "buffer; pH 7.4; 200.0 µM", "units": {"solubility kinetic": "µg/mL"}, "values": [
      {"compound": "CCOC(=O)C1=C(C)NC(=S)NC1c1ccco1", "note": "(configuration not stated)", "solubility kinetic": 39.9},
      {"compound": "CCCN1CCC(NC(=O)Cc2ccccc2C)CC1", "solubility kinetic": 33.4},
      {"compound": "Cc1cc(C)c(NC(=S)NC(CO)(CO)CO)c(C)c1", "solubility kinetic": "> 44.8"},
      {"compound": "CC(=O)c1cc(F)ccc1OCC(=O)N1CCCc2ccccc21", "solubility kinetic": 44.1},
      {"compound": "CC1(C)C2CCC1(C)C(OC(=O)C[n+]1ccccc1N)C2.[Br-]", "note": "(configuration not stated)", "solubility kinetic": "> 55.4"},
      {"compound": "Cc1ccc(O)c(NC(=O)c2cc(-c3ccc(F)cc3)on2)c1", "solubility kinetic": "< 0.3"},
      {"compound": "COc1ccc(Nc2oc(-c3ccccc3)nc2C#N)cc1", "solubility kinetic": 0.5},
      {"compound": "O=C(NCCCN1CCCC1=O)c1cc2c(s1)CCCCC2", "solubility kinetic": "> 48.1"},
      {"compound": "CCN(CC(=O)NCc1ccc(F)cc1)S(=O)(=O)c1ccc(Cl)s1", "solubility kinetic": 10.5},
      {"compound": "CC1CC(C)CN(C(=O)COC(=O)c2ccc(Cl)nc2)C1", "note": "(configuration not stated)", "solubility kinetic": "> 46.6"},
      {"compound": "COc1ccc(CC(=O)OCC(=O)NC2CCCCC2)cc1", "solubility kinetic": "> 45.8"},
      {"compound": "CC(C)Nc1nc2cccnc2s1", "solubility kinetic": "> 29"},
      {"compound": "Cn1nccc1C(=O)NC1CCN(Cc2ccccc2)CC1", "solubility kinetic": "> 44.8"},
      {"compound": "CC(C)OCc1ccc(C(=O)N2CCN(CC(=O)N3CCCC3)CC2)cc1", "solubility kinetic": "> 56"},
      {"compound": "Cn1c(Cl)c(/C=N/OC(=O)C2CC2)c2ccccc21", "solubility kinetic": 2.7},
      {"compound": "O=C(CCc1c[nH]c2ccccc12)NCc1cccc(Cl)c1", "solubility kinetic": 40.3},
      {"compound": "O=C([O-])c1ncc(Cl)c(Cl)c1Cl.[NH4+]", "solubility kinetic": "> 36.5"},
      {"compound": "CC(C)N(Cc1ccccc1)C(=S)Nc1ccccc1F", "solubility kinetic": 40},
      {"compound": "COc1ccc(Nc2nc(N)c([N+](=O)[O-])c(N3CCCC3)n2)cc1", "solubility kinetic": 26.5},
      {"compound": "CC(C)(C)C(=O)Nc1ccc(C(=O)COC(=O)c2ccccn2)cc1", "solubility kinetic": 50.2},
      {"compound": "CCOC(=O)COc1ccc2c(c1)c(C(C)=O)c(C)n2Cc1ccccc1", "solubility kinetic": 6.9},
      {"compound": "COCc1cc(=O)oc2cc(NS(=O)(=O)c3ccc(C)cc3)ccc12", "solubility kinetic": 1.3},
      {"compound": "CCOC(=O)CCNC(=O)CCNC(=O)C(c1ccccc1)c1ccccc1", "solubility kinetic": "> 57.4"},
      {"compound": "COC(=O)[C@H](C)NC(=O)NCc1ccc(S(N)(=O)=O)cc1", "solubility kinetic": "> 47.3"},
      {"compound": "N#Cc1ccc(C(=O)CSc2n[nH]c(=O)n2-c2cccnc2)cc1", "solubility kinetic": "> 50.6"},
      {"compound": "COc1ccc(Nc2nc(C)nc3c2oc2ccccc23)cc1", "solubility kinetic": 1.7},
      {"compound": "Cc1ccc(N2CC(C(=O)N3CCCCCC3)CC2=O)cc1", "note": "(configuration not stated)", "solubility kinetic": "> 45.1"},
      {"compound": "O=C(/C=C\\c1ccccc1)Nc1ccc(NC(=O)c2ccco2)cc1", "solubility kinetic": "< 0.4"},
      {"compound": "Cc1ccc(-n2c(/C=C/c3ccccn3)nc3ccccc3c2=O)cc1", "solubility kinetic": 0.6},
      {"compound": "Cc1ccc2nc3cc([N+](=O)[O-])cc([N+](=O)[O-])c3cc2c1", "solubility kinetic": 0.8},
      {"compound": "CN(C)c1ccc(C(=O)NCc2ccc3c(c2)OCO3)cc1", "solubility kinetic": 10.2},
      {"compound": "CCC(=O)N=c1ccn(C2=Nc3ccccc3NC2=C(C#N)C#N)cc1", "solubility kinetic": 30.9},
      {"compound": "Cc1ccc(C)c(NCC(O)c2ccccc2)c1", "note": "(configuration not stated)", "solubility kinetic": "> 36.2"},
      {"compound": "CCCN(CCC)S(=O)(=O)c1cc2c3c(c1)CCN3C(=O)CC2", "solubility kinetic": "> 50.5"},
      {"compound": "COc1ccc(/C=C/C(=O)N2CCN(c3ccccn3)CC2)cc1", "solubility kinetic": 13.9},
      {"compound": "CN1CCN(Cc2cc(=O)n3ccsc3n2)CC1", "solubility kinetic": 35.7},
      {"compound": "CC1CC(C)CN(C(=O)CCNC(=O)c2ccccc2Cl)C1", "note": "(configuration not stated)", "solubility kinetic": 47.7},
      {"compound": "CCN(CC)c1ccc(CNCCc2ccc(F)cc2)cc1.Cl", "solubility kinetic": "> 50.5"},
      {"compound": "CCN(c1ccccc1)S(=O)(=O)c1ccc(Cl)nc1", "solubility kinetic": 32},
      {"compound": "Cc1ccnc(NC(=O)c2cccc3ccccc23)c1", "solubility kinetic": 6.1},
      {"compound": "O=C(c1ccncc1)N1CCN(CCc2ccccc2)CC1", "solubility kinetic": "> 44.3"},
      {"compound": "Fc1ccccc1CN1CCCC(NC2CCC2)C1", "note": "(configuration not stated)", "solubility kinetic": 36.9},
      {"compound": "NCCCS(=O)(=O)O", "solubility kinetic": "< 0.3"},
      {"compound": "Cc1noc(C)c1C(=O)OCC(=O)N(C)C1CCS(=O)(=O)C1", "note": "(configuration not stated)", "solubility kinetic": "> 49.6"},
      {"compound": "Cc1ccc(C(CNC(=O)c2ccco2)N2CCN(C)CC2)cc1", "note": "(configuration not stated)", "solubility kinetic": "> 49.1"},
      {"compound": "CC(=O)N1N=C(N)SC1(C)C", "solubility kinetic": "> 26"},
      {"compound": "COc1ccc([N+](=O)[O-])c(OC)c1C(=O)NC(=O)Nc1c(C)cccc1C", "solubility kinetic": 0.9}
    ]}
  ]
}
